According to PMC11106739, “Discovery and Derivatization of Tridecaptin Antibiotics with Altered Host Specificity and Enhanced Bioactivity” (ACS Chemical Biology, 2024):
Values after ≈ are worked out from the molar mass of the structure shown. Read-outs that look alike come from different tables or passages of the source. Where a SMILES comes first, the peptide text is derived from it. Bridges are numbered along the chain shown (N, C = ends). [ ]: non-standard residue; d: D form. The star is where a group is joined. d(aIle) = CC[C@H](C)[C@@H](N)C(=O)O; X1 = CC[C@H](C)CCCCC(=O)*; dDab = NCC[C@@H](N)C(=O)O; Octanoyl = CCCCCCCC(=O)*; Dab = NCC[C@H](N)C(=O)O

Legend:
S. aureus ATCC 29213 = assay type: cell-based, Staphylococcus aureus
Procedure: (§1) All minimum inhibitory concentrations (MICs) were determined according to the Clinical and Standards Laboratory Institute (CLSI) guidelines. In brief, agar plates were inoculated from glycerol stocks and incubated overnight at 35 °C. Peptide DMSO stocks were dispensed into 96-well round-bottom plates using a TECAN D300e dispenser. Colistin sulfate (Sigma-Aldrich) was dissolved in water and serially diluted in a cation-adjusted Mueller Hinton broth (10 μL per well). Final concentrations of the test compounds were 0.06 to 64 μg/mL. Inocula were prepared by direct colony suspension in NaCl at 0.5 MacFarland, which was further diluted 200-fold in cation-adjusted Mueller Hinton broth for a target inoculum of 2 × 10^5 colony forming units (CFUs)/mL. 100 μL portion of the prepared inoculum was added to each well of the prepared plates containing the test compounds. Plates were sealed with parafilm and incubated for 20 h at 35 °C. Images of all plates were recorded, and MIC was assessed visually.

S. aureus 1126387 = assay type: cell-based, Staphylococcus aureus
Procedure: as §1

S. aureus UAMS-1625 = assay type: cell-based, Staphylococcus aureus; details: S. aureus UAMS-1625 (BV18); CLSI broth dilution, cation-adjusted Mueller Hinton broth, 20 h, 35 °C, read visually
Procedure: as §1

P. aeruginosa 1226072 = assay type: cell-based, Pseudomonas aeruginosa
Procedure: as §1

P. aeruginosa PAO1 = assay type: cell-based, Pseudomonas aeruginosa
Procedure: as §1

P. aeruginosa 1218019 = assay type: cell-based, Pseudomonas aeruginosa
Procedure: as §1

A. baumannii IHMA 777621 = assay type: cell-based, Acinetobacter baumannii
Procedure: as §1

A. baumannii HUMC1 = assay type: cell-based, Acinetobacter baumannii
Procedure: as §1

A. baumannii ATCC 17978 = assay type: cell-based, Acinetobacter baumannii
Procedure: as §1

K. pneumoniae 1227947 = assay type: cell-based, Klebsiella pneumoniae
Procedure: as §1

K. pneumoniae 1228586 = assay type: cell-based, Klebsiella pneumoniae
Procedure: as §1

K. pneumoniae ATCC 13883 = assay type: cell-based, Klebsiella pneumoniae
Procedure: as §1

E. coli 1220120 = assay type: cell-based, Escherichia coli
Procedure: as §1

E. coli ATCC 25922 = assay type: cell-based, Escherichia coli
Procedure: as §1

E. coli 1214245 = assay type: cell-based, Escherichia coli
Procedure: as §1

Rabbit red blood cells = assay: Hemolysis assay; assay type: cell-based; details: rabbit red blood cells in PBS, 37 °C, 1 h, absorbance at 405 nm, normalization to the Triton X-100 control; 0.25 to 128 μg/mL tested
Procedure: Peptides, dissolved in DMSO, were dispensed into 96-well round-bottom microplates using a TECAN D300e dispenser and subsequently diluted with 100 μL of PBS. PBS or 2% Triton X-100 was used as negative and positive controls, respectively. Rabbit red blood cells (BioConcept) were diluted in PBS to a final concentration of 2%, and 100 μL was added to each well of the prepared 96-well plates. The final concentration of the test compounds was 0.25 to 128 μg/mL. Plates were incubated at 37 °C for 1 h and afterward subjected to centrifugation at 1000g for 5 min. Then, 30 μL of supernatant was transferred to a new round-bottom plate, and absorbance was measured at 405 nm (TECAN Infinite F200). EC50s were calculated after blank subtraction and normalization to the Triton control.

E. faecalis ATCC 29212 = assay type: cell-based, Enterococcus faecalis
Procedure: as §1

ATCC 25922 = assay type: cell-based, Enterococcus faecalis
Procedure: as §1

E. faecium IHMA 890472 = assay type: cell-based, Enterococcus faecium
Procedure: as §1

E. faecium ATCC 51559 = assay type: cell-based, Enterococcus faecium
Procedure: as §1

HepG2 cells = assay: Cytotoxicity determination (CellTiter-Glo); assay type: cell-based; details: HepG2, medium without serum, 24 h, normalization to the untreated control, 1 to 128 μg/mL tested
Procedure: HepG2 cells were grown in EMEM (Sigma) supplemented with 2 mM glutamine and 10% fetal bovine serum (Fisher) at 37 °C, 5% CO2. 20′000 cells per well were seeded into clear tissue culture-treated 96-well plates and incubated for 24 h. Peptides, dissolved in DMSO, were dispensed into 96 deep well plates (TECAN D300e dispenser) and diluted to a final concentration of 1 to 128 μg/mL using fresh medium without serum. The next day, the old media were removed from the cells, and 200 μL of the prepared compound dilutions was added per well. Plates were incubated for another 24 h before assessing the cell viability using the CellTiter-Glo kit (Promega) according to the manufacturer’s protocol. IC50s were calculated after normalization to the untreated control.

| Compound | MIC (S. aureus ATCC 29213; ATCC 29213, 20 h) | MIC (S. aureus 1126387; 1126387, 20 h) | MIC (S. aureus UAMS-1625) | MIC (P. aeruginosa 1226072; 1226072, 20 h) | MIC (P. aeruginosa PAO1; PAO1, 20 h) | MIC (P. aeruginosa 1218019; 1218019, 20 h) | MIC (A. baumannii IHMA 777621; IHMA 777621, 20 h) | MIC (A. baumannii HUMC1; HUMC1, 20 h) | MIC (A. baumannii ATCC 17978; ATCC 17978, 20 h) | MIC (K. pneumoniae 1227947; 1227947, 20 h) | MIC (K. pneumoniae 1228586; 1228586, 20 h) | MIC (K. pneumoniae ATCC 13883; ATCC 13883, 20 h) | MIC (E. coli 1220120; 1220120, 20 h) | MIC (E. coli ATCC 25922; ATCC 25922, 20 h) | MIC (E. coli 1214245; 1214245, 20 h) | MIC (E. faecalis ATCC 29212; ATCC 29212, 20 h) | MIC (ATCC 25922; ATCC 25922, 20 h) | MIC (E. faecium IHMA 890472; IHMA 890472, 20 h) | MIC (E. faecium ATCC 51559; ATCC 51559, 20 h) | also measured |
| --- | --- | --- | --- | --- | --- | --- | --- | --- | --- | --- | --- | --- | --- | --- | --- | --- | --- | --- | --- | --- |
| CCCCCCCC(=O)N[C@@H](C(=O)N[C@H](CCN)C(=O)NCC(=O)N[C@H](CO)C(=O)N[C@H](Cc1c[nH]c2ccccc12)C(=O)N[C@@H](CO)C(=O)N[C@@H](CCN)C(=O)N[C@H](CCN)C(=O)N[C@H](C(=O)N[C@@H](CCC(=O)O)C(=O)N[C@H](C(=O)N[C@@H](C(=O)N[C@@H](C)C(=O)O)[C@@H](C)CC)C(C)C)[C@@H](C)CC)C(C)C [Oct-Ile9] (Octanoyl-[dV][dDab]G[dS][dW]S[Dab][dDab]IEV[d(aIle)]A-OH) | 64 µg/mL (≈ 43 µM) | >64 µg/mL | >64 µg/mL | 16 µg/mL (≈ 10.8 µM) | 64 µg/mL (≈ 43 µM) | 16 µg/mL (≈ 10.8 µM) | 16 µg/mL (≈ 10.8 µM) | 16 µg/mL (≈ 10.8 µM) | 16 µg/mL (≈ 10.8 µM) | 4 µg/mL (≈ 2.69 µM) | 4 µg/mL (≈ 2.69 µM) | 2 µg/mL (≈ 1.35 µM) | 2 µg/mL (≈ 1.35 µM) | 2 µg/mL (≈ 1.35 µM) | 2 µg/mL (≈ 1.35 µM) | 64 µg/mL (≈ 43 µM) | 64 µg/mL (≈ 43 µM) | 32 µg/mL (≈ 21.5 µM) | 64 µg/mL (≈ 43 µM) | Hemolysis EC50 (Rabbit red blood cells): >128 µg/mL |
| CC[C@H](C)CCCCC(=O)N[C@@H](CCN)C(=O)N[C@H](C(=O)N[C@@H](CCN)C(=O)N[C@H]1CCNC(=O)[C@H]([C@@H](C)O)NC(=O)[C@H](CCN)NC(=O)[C@H](CCN)NC(=O)[C@H](CC(C)C)NC(=O)[C@@H](CC(C)C)NC(=O)[C@H](CCN)NC1=O)[C@@H](C)O [colistin, reference compound] (X1-[Dab]T[Dab][Dab][Dab][dL]L[Dab][Dab]T; lactam 4-C (inferred); N-terminus assumed) |  |  | >64 µg/mL |  |  |  |  |  |  |  |  |  |  |  |  |  |  |  |  | MIC (S. aureus ATCC 29213; S. aureus ATCC 29213 (BV249), CLSI broth dilution, cation-adjusted Mueller Hinton broth, 20 h, 35 °C, read visually): >64 µg/mL; MIC (S. aureus 1126387; S. aureus 1126387 (BV1402), CLSI broth dilution, cation-adjusted Mueller Hinton broth, 20 h, 35 °C, read visually): >64 µg/mL; MIC (P. aeruginosa 1226072; P. aeruginosa 1226072 (BV1551), CLSI broth dilution, cation-adjusted Mueller Hinton broth, 20 h, 35 °C, read visually): 0.5 µg/mL (≈ 0.428 µM); MIC (P. aeruginosa PAO1; P. aeruginosa PAO1 (BV34), CLSI broth dilution, cation-adjusted Mueller Hinton broth, 20 h, 35 °C, read visually): 2 µg/mL (≈ 1.71 µM); MIC (P. aeruginosa 1218019; P. aeruginosa 1218019 (BV1544), colistin-resistant, CLSI broth dilution, cation-adjusted Mueller Hinton broth, 20 h, 35 °C, read visually): >64 µg/mL; MIC (A. baumannii IHMA 777621; A. baumannii IHMA 777621 (BV94), CLSI broth dilution, cation-adjusted Mueller Hinton broth, 20 h, 35 °C, read visually): 64 µg/mL (≈ 54.7 µM); MIC (A. baumannii HUMC1; A. baumannii HUMC1 (BV374), CLSI broth dilution, cation-adjusted Mueller Hinton broth, 20 h, 35 °C, read visually): 1 µg/mL (≈ 0.855 µM); MIC (A. baumannii ATCC 17978; A. baumannii ATCC 17978 (BV160), CLSI broth dilution, cation-adjusted Mueller Hinton broth, 20 h, 35 °C, read visually): 1 µg/mL (≈ 0.855 µM); IC50 on HepG2 w/o FCS (HepG2 cells): >128 µg/mL; MIC (K. pneumoniae 1227947; K. pneumoniae 1227947 (BV1445), CLSI broth dilution, cation-adjusted Mueller Hinton broth, 20 h, 35 °C, read visually): 0.5 µg/mL (≈ 0.428 µM); MIC (K. pneumoniae 1228586; K. pneumoniae 1228586 (BV1447), CLSI broth dilution, cation-adjusted Mueller Hinton broth, 20 h, 35 °C, read visually): 64 µg/mL (≈ 54.7 µM); MIC (K. pneumoniae ATCC 13883; K. pneumoniae ATCC 13883 (BV306), CLSI broth dilution, cation-adjusted Mueller Hinton broth, 20 h, 35 °C, read visually): 1 µg/mL (≈ 0.855 µM); MIC (E. coli 1220120; E. coli 1220120 (BV1475), CLSI broth dilution, cation-adjusted Mueller Hinton broth, 20 h, 35 °C, read visually): 0.5 µg/mL (≈ 0.428 µM); MIC (E. coli ATCC 25922; E. coli ATCC 25922 (BV23), CLSI broth dilution, cation-adjusted Mueller Hinton broth, 20 h, 35 °C, read visually): 1 µg/mL (≈ 0.855 µM); MIC (E. coli 1214245; E. coli 1214245 (BV1469), CLSI broth dilution, cation-adjusted Mueller Hinton broth, 20 h, 35 °C, read visually): 32 µg/mL (≈ 27.4 µM); MIC (E. faecalis ATCC 29212; E. faecalis ATCC 29212 (BV29), CLSI broth dilution, cation-adjusted Mueller Hinton broth, 20 h, 35 °C, read visually): >64 µg/mL; MIC (ATCC 25922; E. faecalis ATCC 25922 (BV99), CLSI broth dilution, cation-adjusted Mueller Hinton broth, 20 h, 35 °C, read visually): >64 µg/mL; MIC (E. faecium IHMA 890472; E. faecium IHMA 890472 (BV144), CLSI broth dilution, cation-adjusted Mueller Hinton broth, 20 h, 35 °C, read visually): >64 µg/mL; MIC (E. faecium ATCC 51559; E. faecium ATCC 51559 (BV159), CLSI broth dilution, cation-adjusted Mueller Hinton broth, 20 h, 35 °C, read visually): >64 µg/mL |
| CCCCCCCC(=O)N[C@@H](C(=O)N[C@H](CCN)C(=O)NCC(=O)N[C@H](CO)C(=O)N[C@H](Cc1c[nH]c2ccccc12)C(=O)N[C@@H](CO)C(=O)N[C@@H](CCN)C(=O)N[C@H](CCN)C(=O)N[C@@H](Cc1ccc(O)cc1)C(=O)N[C@@H](CCC(=O)O)C(=O)N[C@H](C(=O)N[C@@H](C(=O)N[C@@H](C)C(=O)O)[C@@H](C)CC)C(C)C)C(C)C [Oct-Tyr9] (Octanoyl-[dV][dDab]G[dS][dW]S[Dab][dDab]YEV[d(aIle)]A-OH) | >64 µg/mL | >64 µg/mL | >64 µg/mL | 4 µg/mL (≈ 2.6 µM) | 64 µg/mL (≈ 41.6 µM) | 4 µg/mL (≈ 2.6 µM) | 32 µg/mL (≈ 20.8 µM) | 32 µg/mL (≈ 20.8 µM) | 32 µg/mL (≈ 20.8 µM) | 4 µg/mL (≈ 2.6 µM) | 4 µg/mL (≈ 2.6 µM) | 4 µg/mL (≈ 2.6 µM) | 4 µg/mL (≈ 2.6 µM) | 2 µg/mL (≈ 1.3 µM) | 2 µg/mL (≈ 1.3 µM) | 64 µg/mL (≈ 41.6 µM) | 64 µg/mL (≈ 41.6 µM) | 32 µg/mL (≈ 20.8 µM) | 64 µg/mL (≈ 41.6 µM) |  |
